Source: ChEMBL document CHEMBL4196200 (J Med Chem, 2018)
pEC50, pIC50, pKi: −log10 of the molar value. Converted amounts (≈) assume the structure as drawn. Numbered stars: 1 amine (or outer) side, 2 acyl side, 3 side chain; on linkers, the order of the positions; unused ones are H or OH. Bridge positions count the residues as written; N and C are the ends. Peptide text beside a SMILES is read from it. X1 = O=C(CCC[*:2])[*:1]

Columns and labels:
[1] = molecular target: T1, Oxytocin receptor (Homo sapiens) (UniProt P30559); experiment: Antagonist activity at human OTR expressed in HEK cells assessed as inhibition of OT-induced intracellular calcium flux at 1 uM incubated for 45 mins by Indo1-AM dye based fluorescence assay relative to OT; type: functional, cell-based
T1 sequence (whole entry): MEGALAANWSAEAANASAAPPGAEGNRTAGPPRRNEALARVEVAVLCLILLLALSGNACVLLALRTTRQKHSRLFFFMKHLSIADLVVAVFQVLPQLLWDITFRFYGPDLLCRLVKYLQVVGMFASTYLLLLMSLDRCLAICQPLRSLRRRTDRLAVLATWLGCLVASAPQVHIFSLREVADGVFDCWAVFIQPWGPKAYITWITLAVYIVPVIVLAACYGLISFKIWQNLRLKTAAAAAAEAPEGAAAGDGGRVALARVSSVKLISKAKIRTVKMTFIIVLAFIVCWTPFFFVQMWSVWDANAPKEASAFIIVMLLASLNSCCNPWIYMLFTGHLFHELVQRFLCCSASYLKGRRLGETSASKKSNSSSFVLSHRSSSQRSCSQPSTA

Vasopressin V2 receptor [2] = molecular target: T2, Vasopressin V2 receptor (Homo sapiens, UniProt P30518); experiment: Agonist activity at human V2 receptor expressed in HEK293FT cells assessed as stimulation of calcium release by Aequorin based assay; type: functional, cell-based
T2 sequence (P30518 whole entry): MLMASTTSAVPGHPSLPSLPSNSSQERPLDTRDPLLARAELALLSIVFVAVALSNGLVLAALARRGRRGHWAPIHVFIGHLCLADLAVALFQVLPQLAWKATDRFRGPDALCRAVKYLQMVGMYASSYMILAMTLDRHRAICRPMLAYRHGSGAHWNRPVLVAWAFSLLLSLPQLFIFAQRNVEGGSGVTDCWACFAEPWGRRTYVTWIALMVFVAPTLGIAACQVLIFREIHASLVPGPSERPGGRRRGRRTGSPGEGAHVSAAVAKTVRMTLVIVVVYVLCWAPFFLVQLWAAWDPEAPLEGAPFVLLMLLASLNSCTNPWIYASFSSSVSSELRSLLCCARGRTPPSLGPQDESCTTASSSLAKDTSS

[3] = Thermodynamic solubility in pH 7.4 buffer; type: physicochemical; details: read-out: Therm_solubility
Oxytocin receptor [4] = molecular target: T3, Oxytocin receptor (Mus musculus, UniProt P97926); experiment: Agonist activity at mouse OTR receptor expressed in HEK293FT cells assessed as stimulation of calcium release by Aequorin based assay; type: functional, cell-based
T3 sequence (P97926 whole entry): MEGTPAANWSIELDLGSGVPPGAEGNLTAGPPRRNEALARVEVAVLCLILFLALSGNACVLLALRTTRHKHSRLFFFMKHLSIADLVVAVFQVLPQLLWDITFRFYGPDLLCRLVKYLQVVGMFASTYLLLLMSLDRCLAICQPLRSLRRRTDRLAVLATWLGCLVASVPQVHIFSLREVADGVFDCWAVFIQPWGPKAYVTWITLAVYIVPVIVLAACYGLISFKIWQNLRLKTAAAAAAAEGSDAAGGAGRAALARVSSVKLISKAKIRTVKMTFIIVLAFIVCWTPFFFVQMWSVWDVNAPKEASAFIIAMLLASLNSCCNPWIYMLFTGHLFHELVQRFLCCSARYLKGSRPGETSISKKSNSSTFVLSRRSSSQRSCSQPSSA

[5] = molecular target: T4, Oxytocin receptor (Mus musculus) (UniProt P97926); experiment: Agonist activity at mouse OTR receptor expressed in HEK293FT cells assessed as stimulation of calcium release by Aequorin based assay relative to OT; type: functional, cell-based
T4 sequence (whole entry): T3 sequence (P97926 whole entry)

Vasopressin V2 receptor [6] = molecular target: T2, Vasopressin V2 receptor; experiment: Binding affinity to V2 receptor (unknown origin)
Vasopressin V1b receptor [7] = molecular target: T5, Vasopressin V1b receptor (Homo sapiens, UniProt P47901); experiment: Binding affinity to V1B receptor (unknown origin)
T5 sequence (P47901 whole entry): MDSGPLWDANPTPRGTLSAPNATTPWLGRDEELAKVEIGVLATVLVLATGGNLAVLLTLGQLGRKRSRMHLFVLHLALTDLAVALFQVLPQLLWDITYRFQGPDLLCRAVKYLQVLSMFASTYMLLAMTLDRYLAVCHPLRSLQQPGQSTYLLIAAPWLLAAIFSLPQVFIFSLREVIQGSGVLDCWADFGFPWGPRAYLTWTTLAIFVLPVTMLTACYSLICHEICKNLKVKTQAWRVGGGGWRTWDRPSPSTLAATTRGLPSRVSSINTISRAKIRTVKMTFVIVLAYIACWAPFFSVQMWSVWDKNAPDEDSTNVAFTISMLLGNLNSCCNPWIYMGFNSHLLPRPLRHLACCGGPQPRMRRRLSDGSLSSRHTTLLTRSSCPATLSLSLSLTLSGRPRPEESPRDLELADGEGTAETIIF

[8] = molecular target: T1, Oxytocin receptor (Homo sapiens); experiment: Agonist activity at human OTR expressed in HEK cells assessed as increase in intracellular calcium flux incubated for 45 mins by Indo1-AM dye based fluorescence assay relative to OT; type: functional, cell-based
[9] = molecular target: T1, Oxytocin receptor (Homo sapiens); experiment: Agonist activity at human OTR receptor expressed in HEK293FT cells assessed as stimulation of calcium release by Aequorin based assay relative to OT; type: functional, cell-based
[10] = molecular target: T1, Oxytocin receptor (Homo sapiens); experiment: Agonist activity at human OTR receptor expressed in HEK293FT cells incubated for 30 mins by beta-arrestin recruitment assay relative to OT; type: functional, cell-based
Vasopressin V2 receptor [11] = molecular target: T2, Vasopressin V2 receptor; experiment: Displacement of DY647 from SNAP-tagged V2 receptor (unknown origin) expressed in HEK293 cells by TR-FRET assay; type: cell-based
[12] = molecular target: T1, Oxytocin receptor (Homo sapiens); experiment: Agonist activity at recombinant human OTR expressed in CHO-DUKX-A2 cells assessed as stimulation of intracellular calcium concentration by calcium 3 dye based FLIPR assay relative to OT; type: functional, cell-based
Vasopressin V1a receptor [13] = molecular target: T6, Vasopressin V1a receptor (Homo sapiens, UniProt P37288); experiment: Antagonist activity at V1A receptor (unknown origin); type: functional
Target sequence in this assay (P37288 whole entry): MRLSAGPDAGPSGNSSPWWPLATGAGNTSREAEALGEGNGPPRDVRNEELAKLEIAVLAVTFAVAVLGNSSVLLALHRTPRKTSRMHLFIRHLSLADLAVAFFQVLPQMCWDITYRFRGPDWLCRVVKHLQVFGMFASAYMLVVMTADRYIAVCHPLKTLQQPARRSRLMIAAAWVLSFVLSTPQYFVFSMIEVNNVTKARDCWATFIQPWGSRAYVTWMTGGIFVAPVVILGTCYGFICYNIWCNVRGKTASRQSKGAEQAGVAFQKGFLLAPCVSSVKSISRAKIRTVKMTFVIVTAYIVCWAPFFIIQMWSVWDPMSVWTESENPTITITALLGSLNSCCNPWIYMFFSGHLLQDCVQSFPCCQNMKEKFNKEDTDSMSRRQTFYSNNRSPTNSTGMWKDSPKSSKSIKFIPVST

Oxytocin receptor [14] = molecular target: T7, Oxytocin receptor (Homo sapiens, UniProt P30559); experiment: Antagonist activity at OXR receptor (unknown origin); type: functional
T7 sequence (P30559 whole entry): T1 sequence (whole entry)

Vasopressin V2 receptor [15] = molecular target: T2, Vasopressin V2 receptor; experiment: Antagonist activity at V2 receptor (unknown origin); type: functional
[16] = molecular target: T1, Oxytocin receptor (Homo sapiens); experiment: Agonist activity at human OTR receptor expressed in CHO cells assessed as increase in myo-inositol 1-phosphate accumulation at 1 uM by IP-One assay relative to OT; type: functional, cell-based
Vasopressin V1a receptor [17] = molecular target: T6, Vasopressin V1a receptor; experiment: Agonist activity at human V1A receptor expressed in CHO cells assessed as increase in myo-inositol 1-phosphate accumulation at 1 uM by IP-One assay relative to AVP; type: functional, cell-based
Target sequence in this assay (P37288 whole entry, looked up): as the sequence (P37288 whole entry) above

Vasopressin V1a receptor [18] = molecular target: T6, Vasopressin V1a receptor
Target sequence in this assay (P37288 whole entry): as above
Description: Agonist activity at human V1a receptor expressed in HEK293FT cells assessed as stimulation of calcium release by Aequorin based assay

Vasopressin V1b receptor [19] = molecular target: T5, Vasopressin V1b receptor
Description: Agonist activity at human V1b receptor expressed in HEK293FT cells incubated for 30 mins by beta-arrestin recruitment assay

Vasopressin V1a receptor [20] = molecular target: T6, Vasopressin V1a receptor; remark: listed apart in the source
Target sequence in this assay (P37288 whole entry): as above
Description: Agonist activity at human V1a receptor expressed in HEK293FT cells incubated for 30 mins by beta-arrestin recruitment assay

Vasopressin V1a receptor [21] = molecular target: T6, Vasopressin V1a receptor; experiment: Displacement of [3H]-AVP from human V1A receptor expressed in CHO cell membranes
Target sequence in this assay (P37288 whole entry): as above

Oxytocin receptor [22] = molecular target: T7, Oxytocin receptor; experiment: Displacement of [3H]-oxytocin from OTR receptor in human USMC cell membranes
Vasopressin V1b receptor [23] = molecular target: T5, Vasopressin V1b receptor; experiment: Displacement of [3H]-AVP from human V1B receptor expressed in CHO cell membranes
Vasopressin V2 receptor [24] = molecular target: T2, Vasopressin V2 receptor; experiment: Displacement of [3H]-AVP from human V2 receptor expressed in CHO cell membranes
Oxytocin receptor [25] = molecular target: T7, Oxytocin receptor; experiment: Agonist activity at human OTR expressed in HEK cells assessed as increase in intracellular calcium flux incubated for 45 mins by Indo1-AM dye based fluorescence assay; type: functional, cell-based
Vasopressin V1a receptor [26] = molecular target: T6, Vasopressin V1a receptor; experiment: Displacement of DY647 from SNAP-tagged V1A receptor (unknown origin) expressed in HEK293 cells by TR-FRET assay; type: cell-based
Target sequence in this assay (P37288 whole entry): as above

Vasopressin V1a receptor [27] = molecular target: T6, Vasopressin V1a receptor; experiment: Antagonist activity at human V1A receptor expressed in HEK cells assessed as inhibition of AVP-induced intracellular calcium flux incubated for 45 mins by Indo1-AM dye based fluorescence assay relative to AVP; type: functional, cell-based
Target sequence in this assay (P37288 whole entry): as above

Oxytocin receptor [28] = molecular target: T7, Oxytocin receptor; experiment: Displacement of DY647 from SNAP-tagged OTR receptor (unknown origin) expressed in HEK293 cells by TR-FRET assay; type: cell-based
Vasopressin V1a receptor [29] = molecular target: T6, Vasopressin V1a receptor; experiment: Agonist activity at human V1A receptor expressed in HEK cells assessed as increase in intracellular calcium flux at 1 uM incubated for 45 mins by Indo1-AM dye based fluorescence assay relative to AVP; type: functional, cell-based
Target sequence in this assay (P37288 whole entry, looked up): as the sequence (P37288 whole entry) above

[30] = molecular target: T1, Oxytocin receptor (Homo sapiens); experiment: Antagonist activity at human OTR receptor expressed in CHO cells assessed as inhibition of OT-induced myo-inositol 1-phosphate accumulation by IP-One assay; type: functional, cell-based
Oxytocin receptor [31] = molecular target: T7, Oxytocin receptor; experiment: Displacement of [3H]-AVP from human OXR receptor expressed in CHO cell membranes by radioligand binding assay
Vasopressin V1a receptor [32] = molecular target: T6, Vasopressin V1a receptor; experiment: Displacement of [3H]-AVP from human V1A receptor expressed in CHO cell membranes by radioligand binding assay
Vasopressin V1a receptor [33] = molecular target: T6, Vasopressin V1a receptor; experiment: Antagonist activity at human V1A receptor expressed in CHO cells assessed as inhibition of AVP-induced myo-inositol 1-phosphate accumulation by IP-One assay; type: functional, cell-based
Target sequence in this assay (P37288 whole entry, looked up): as the sequence (P37288 whole entry) above

Vasopressin V2 receptor [34] = molecular target: T2, Vasopressin V2 receptor; experiment: Antagonist activity at human V2 receptor expressed in CHO cells assessed as inhibition of AVP-induced cAMP accumulation by cAMP dynamic 2 assay; type: functional, cell-based
Vasopressin V2 receptor [35] = molecular target: T2, Vasopressin V2 receptor; experiment: Displacement of [3H]-AVP from human V2 receptor expressed in CHO cell membranes by radioligand binding assay
[36] = molecular target: T1, Oxytocin receptor (Homo sapiens); experiment: Agonist activity at human OTR receptor expressed in CHO cells co-expressing NFAT-luciferase incubated for 5 hrs by luciferase reporter gene assay relative to OT; type: functional, cell-based

## Cc1cc(C(=O)N2Cc3cnn(C)c3Nc3ccccc32)ccc1CNC(=O)N1CCN(Cc2cc(O)cc(O)c2)CC1
[1]
  inhibition: 5 to 10%
Vasopressin V2 receptor [2]
  pEC50: 5.64
[3]
  solubility thermodynamic: 5 mM (≈ 2910 µg/mL)
Oxytocin receptor [4]
  pEC50: 7.11
[5]
  Emax: 86%
Vasopressin V2 receptor [6]
  pKi: 6.00 to 7.23
Vasopressin V1b receptor [7]
  pKi: 5.24 to 6.00
[8]
  Emax: 40%
[9]
  Emax: 70%
[10]
  Emax: 84%
Vasopressin V2 receptor [11]
  pKi: < 6.00
[12]
  Emax: 87.1%

## O=C(Nc1ccc(C(=O)N2CCCCc3ccccc32)cc1)c1ccccc1-c1ccccc1
Vasopressin V1a receptor [13]
  pIC50: 8.56
Oxytocin receptor [14]
  pIC50: 6.96
Vasopressin V2 receptor [15]
  pIC50: 9.24
[16]
  Emax: < 10%
Vasopressin V1a receptor [17]
  Emax: < 10%

## CC[C@H](C)[C@@H]1NC(=O)[C@H](Cc2ccc(OC)cc2)NC(=O)CCCSC[C@@H](C(=O)N2CCC[C@H]2C(=O)N[C@@H](CC(C)C)C(=O)NCC(N)=O)NC(=O)[C@H](CC(N)=O)NC(=O)[C@H](CCC(N)=O)NC1=O [CARBETOCIN] (Y(Me)IQNCPLG-NH2; linker N-5 via X1)
Vasopressin V1a receptor [18]
  EC50: Not Active
Oxytocin receptor [4]
  pEC50: 7.21
Vasopressin V1b receptor [19]
  EC50: Not Active
[5]
  Emax: 85%
Vasopressin V1a receptor [20]
  IC50: Not Active

## Cc1occc1C(=O)Nc1ccc(C(=O)N2CCC(F)(F)/C(=C\C(=O)N3CCC(N4CCCCC4)CC3)c3ccccc32)cc1
Vasopressin V1a receptor [21]
  pKi: 9.52
Oxytocin receptor [22]
  pKi: 7.15
Vasopressin V1b receptor [23]
  pKi: 4.59
Vasopressin V2 receptor [24]
  pKi: 6.42

## Cc1cc(C(=O)N2Cc3cnn(C)c3Nc3ccccc32)ccc1CNC(=O)N1CCC[C@H]1C(=O)N(C)C
[1]
  inhibition: 5 to 10%
Oxytocin receptor [25]
  pEC50: 6.52
Vasopressin V1a receptor [26]
  pKi: < 6.00
Vasopressin V1a receptor [27]
  pIC50: 7.02
[8]
  Emax: 34%
Oxytocin receptor [28]
  pKi: < 6.00
Vasopressin V1a receptor [29]
  Emax: 5 to 10%
Vasopressin V2 receptor [11]
  pKi: < 6.00

## O=C(c1ccc(-c2cccnc2)cc1)N1CCCCc2ccccc21
[30]
  Kinact: 227 nM
Oxytocin receptor [31]
  pKi: 6.82
Vasopressin V1a receptor [32]
  pKi: 7.17
Vasopressin V1a receptor [33]
  Kinact: 51 nM
[16]
  Emax: < 10%
Vasopressin V2 receptor [34]
  Kinact: 78 nM
Vasopressin V1a receptor [17]
  Emax: < 10%
Vasopressin V2 receptor [35]
  pKi: 6.63

## CC[C@H](C)[C@@H]1NC(=O)[C@H](Cc2ccc(O)cc2)NC(=O)[C@@H](N)CSSC[C@@H](C(=O)N2CCC[C@H]2C(=O)N[C@@H](CC(C)C)C(=O)NCC(N)=O)NC(=O)[C@H](CC(N)=O)NC(=O)[C@H](CCC(N)=O)NC1=O [OXYTOCIN]
[5]
  Emax: 100%
Vasopressin V1a receptor [20]
  IC50: Not Active
[9]
  Emax: 100%
[10]
  Emax: 100%

## Cc1cc(C(=O)N2Cc3cnn(C)c3Nc3ccccc32)ccc1CNC(=O)N1CCC[C@H]1C(=S)N1CCCN(C)CC1
[1]
  inhibition: 5 to 10%
[36]
  Emax: 100%
Oxytocin receptor [25]
  pEC50: 7.55
Vasopressin V1a receptor [26]
  pKi: 6.71
Vasopressin V1a receptor [27]
  pIC50: 8.10
[8]
  Emax: 84%
Oxytocin receptor [28]
  pKi: 6.85
Vasopressin V1a receptor [29]
  Emax: 5 to 10%
